# Measurements taken from paper PMC11821233, “Impact of Bioactive Ingredients on the Fecal Excretion of Aflatoxin B1 and Ochratoxin A in Wistar Rats” (Molecules, 2025).
# Several values for one entry are separate records, joined by “and”; a condition that tells them apart may be missing. Equal values may be shown once. Read-outs that look alike come from different tables or passages of the source.
# Columns and labels:
# [1] = not given; remark: listed apart in the source
# [2] = females, feces collected in the fourth week of the in vivo study, label = diet group, LOD 0.1 µg/kg
# [3] = males, feces collected in the fourth week of the in vivo study, label = diet group, LOD 0.1 µg/kg
Compound,Concentration of AFB1 in rat feces [2],Concentration of AFB1 in rat feces [3],"Concentration of OTA in rat feces [1, 2]","Concentration of OTA in rat feces [1, 3]","Concentration of AFB1 in rat feces (rat, in vivo)","Concentration of OTA in rat feces ([1]; rat, in vivo)"
"C[C@@H]1Cc2c(Cl)cc(C(=O)N[C@@H](Cc3ccccc3)C(=O)O)c(O)c2C(=O)O1 [OTA, ochratoxin A]",<LOD,<LOD,933 ± 512 µg mycotoxin/kg dry feces,1729 ± 712 µg mycotoxin/kg dry feces,,
aflatoxin B1 [AFB1],,,,,52 ± 61 µg mycotoxin/kg dry feces and 91 ± 77 µg mycotoxin/kg dry feces,<LOD
